Test results as given in patent US11530244B2, “Cyclic polypeptides for PCSK9 inhibition” (priority 2018, dated 2022).
Starred links: 1 amine or outer side, 2 acyl side, 3 side chain; linkers in the order of their positions; H or OH if unused. Positions of bridges follow the written chain, without caps; N, C: chain ends. Non-standard residues stand in square brackets, D forms with d. Residues, ends and D or L forms follow the SMILES beside them. Trp(5-F) = N[C@@H](Cc1c[nH]c2ccc(F)cc12)C(=O)O; Trp(1-Me) = Cn1cc(C[C@H](N)C(=O)O)c2ccccc21; mXylylene(5-F) = Fc1cc(C[*:1])cc(C[*:2])c1; X17 = O=C(CCSCc1ccc(CSCCN[*:1])cc1)[*:2]; Pro(4S-NH2) = N[C@@H]1CN[C@H](C(=O)O)C1; 2Nal = N[C@@H](Cc1ccc2ccccc2c1)C(=O)O; mXylylene = c1cc(C[*:1])cc(C[*:2])c1; AEF = NCCOc1ccc(C[C@H](N)C(=O)O)cc1; NMeY = CN[C@@H](Cc1ccc(O)cc1)C(=O)O; NMeT = CN[C@H](C(=O)O)[C@@H](C)O; X22 = Oc1cc(C[*:1])cc(C[*:2])c1; NMeD = CN[C@@H](CC(=O)O)C(=O)O; NMeL = CN[C@@H](CC(C)C)C(=O)O; dNMeL = CN[C@H](CC(C)C)C(=O)O; αMeP = C[C@@]1(C(=O)O)CCCN1; Nva = CCC[C@H](N)C(=O)O; Mpa = O=C(O)CCS

Columns and labels:
[1] = biological target: human PCSK9 / human LDLR EGFa domain interaction (Homo sapiens (Human), UniProt Q8NBP7); experiment: TR-FRET assay of inhibition of the PCSK9-LDLR protein-protein interaction; type: binding; conditions: TR-FRET, 20 nM human PCSK9, 20 nM human LDLR EGFa domain, 2 hours room temperature; read-out: IC50
Summary of the method: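 Half-maximal inhibition was derived by 4-parameter fitting of dose-response TR-FRET data. Each well held 20 nM His-LDLR EGFa, 20 nM avitag-biotinylated PCSK9, Eu-anti-6×His and Ulight-streptavidin (5 nM each) in 50 mM HEPES, 150 mM NaCl, 5 mM CaCl2, 0.01% BSA, 0.01% Surfactant P20, incubated 2 h at room temperature.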

PCSK9 = PCSK9 (Homo sapiens (Human), UniProt Q8NBP7); experiment: PCSK9 Alexa FRET Standard assay (displacement of AlexaFluor647 tagged cyclic peptide Reagent A); type: binding; conditions: PCSK9 Alexa FRET Standard assay, 0.5 nM PCSK9, 20 nM AF cyclic peptide Reagent A; read-out: IC50
Summary of the method: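 TR-FRET displacement: 0.5 nM biotinylated PCSK9 with 1.25 nM Strep-Eu and 20 nM AlexaFluor-tagged cyclic peptide (final) in 50 mM HEPES pH 7.4, 0.15 M NaCl, 5 mM CaCl2, 0.01% BSA, 0.01% P20, ≥2 h at room temperature. IC50 from sigmoidal fit, converted to Ki via peptide KD; falling Eu counts flagged false positives.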

Chain of PCSK9 (Q8NBP7 153-692): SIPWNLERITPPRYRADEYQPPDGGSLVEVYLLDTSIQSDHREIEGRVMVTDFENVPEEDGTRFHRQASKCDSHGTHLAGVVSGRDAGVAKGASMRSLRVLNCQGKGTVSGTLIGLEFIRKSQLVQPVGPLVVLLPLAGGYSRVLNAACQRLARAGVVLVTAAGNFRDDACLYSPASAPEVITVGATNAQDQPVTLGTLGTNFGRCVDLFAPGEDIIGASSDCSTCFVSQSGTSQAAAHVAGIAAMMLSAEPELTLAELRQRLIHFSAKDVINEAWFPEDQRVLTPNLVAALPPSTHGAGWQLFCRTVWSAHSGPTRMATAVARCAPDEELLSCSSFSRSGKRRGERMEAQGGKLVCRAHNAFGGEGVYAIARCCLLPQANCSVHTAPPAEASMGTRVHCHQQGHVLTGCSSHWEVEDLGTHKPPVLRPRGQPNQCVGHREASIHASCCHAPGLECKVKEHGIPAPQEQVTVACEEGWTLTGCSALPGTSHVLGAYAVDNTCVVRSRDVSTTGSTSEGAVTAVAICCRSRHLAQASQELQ
Chain of human PCSK9 / human LDLR EGFa domain interaction (Q8NBP7 153-692): as above
Chain of human PCSK9 / human LDLR EGFa domain interaction (Q8NBP7 31-152 partner): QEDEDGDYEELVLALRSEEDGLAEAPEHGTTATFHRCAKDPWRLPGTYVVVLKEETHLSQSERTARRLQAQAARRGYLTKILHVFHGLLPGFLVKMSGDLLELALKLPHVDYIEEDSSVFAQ

| IC50 [1] | IC50 (PCSK9) | Compound |
| --- | --- | --- |
| 0.1 to 100 nM | 100 to 1000 nM | CN1C(=O)[C@H](Cc2c[nH]c3ccc(F)cc23)NC(=O)[C@H](Cc2c[nH]c3ccc(F)cc23)NC(=O)CNC(=O)[C@H](CCCCN)NC(=O)CCSCc2cccc(c2)CSC[C@@H](C(N)=O)NC(=O)[C@@H]2CCCN2C(=O)[C@H](Cc2ccc(O)cc2)NC(=O)[C@H](Cc2cnc[nH]2)NC(=O)[C@@H]1CC(=O)O [Compound 171] ([Mpa]KG[Trp(5-F)][Trp(5-F)][NMeD]HYPC-NH2; linker 1-10 via mXylylene) |
| 1000 to 12100 nM | 1000 to 12100 nM | CC(=O)N[C@H]1CC(=O)NCCOc2ccc(cc2)C[C@@H](C(N)=O)NC(=O)[C@]2(C)CCCN2C(=O)[C@H](Cc2ccc(O)cc2)NC(=O)[C@H](Cc2c[nH]cn2)NC(=O)[C@H](CC(=O)O)NC(=O)[C@H](Cc2c[nH]c3ccc(F)cc23)NC(=O)[C@H](Cc2c[nH]c3ccc(F)cc23)NC(=O)CNC(=O)[C@H](C)NC1=O [Compound 310] (Ac-DAG[Trp(5-F)][Trp(5-F)]DHY[αMeP][AEF]-NH2; lactam 1-10) |
| 0.1 to 100 nM | 100 to 1000 nM | C[C@@]12CCCN1C(=O)[C@H](Cc1ccc(O)cc1)NC(=O)[C@H](Cc1c[nH]cn1)NC(=O)[C@H](CC(=O)O)NC(=O)[C@H](Cc1c[nH]c3ccc(F)cc13)NC(=O)[C@H](Cc1c[nH]c3ccc(F)cc13)NC(=O)CNC(=O)[C@H](CCCCN)NC(=O)CCSCc1cc(O)cc(c1)CSC[C@@H](C(N)=O)NC2=O [Compound 359] ([Mpa]KG[Trp(5-F)][Trp(5-F)]DHY[αMeP]C-NH2; linker 1-10 via X22) |
| 0.1 to 100 nM | 0.11 to 100 nM | CCC[C@@H]1NC(=O)CCSCc2cccc(c2)CSC[C@@H](C(N)=O)NC(=O)[C@@H]2CCCN2C(=O)[C@H](Cc2ccc(OC)cc2)NC(=O)[C@H]([C@@H](C)OC)N(C)C(=O)[C@@H]2CCCN2C(=O)[C@H](Cc2cn(C)c3ccccc23)NC(=O)[C@H](Cc2ccc3ccccc3c2)NC(=O)[C@@H](CC(C)C)N(C)C1=O [Compound 046] ([Mpa][Nva][dNMeL][2Nal][Trp(1-Me)]P[NMeT](Me)Y(Me)PC-NH2; linker 1-10 via mXylylene) |
| 100 to 1000 nM | 100 to 1000 nM | C[C@H]1NC(=O)[C@H](CCCCN)NC(=O)CCSCc2cccc(c2)CSC[C@@H](C(N)=O)NC(=O)[C@]2(C)CCCN2C(=O)[C@H](Cc2ccc(O)cc2)NC(=O)[C@H]([C@@H](C)O)NC(=O)[C@@H]2CCCN2C(=O)[C@H](Cc2c[nH]c3ccc(F)cc23)NC(=O)[C@H](Cc2c[nH]c3ccc(F)cc23)NC1=O [Compound 044] ([Mpa]K[dA][Trp(5-F)][Trp(5-F)]PTY[αMeP]C-NH2; linker 1-10 via mXylylene) |
| 100 to 1000 nM | 100 to 1000 nM | C[C@@H](O)[C@@H]1NC(=O)[C@@H]2CCCN2C(=O)[C@H](Cc2c[nH]c3ccc(F)cc23)NC(=O)[C@H](Cc2c[nH]c3ccc(F)cc23)NC(=O)CNC(=O)[C@H](CCCCN)NC(=O)CCSCc2cc(F)cc(c2)CSC[C@@H](C(N)=O)NC(=O)[C@]2(C)CCCN2C(=O)[C@H](Cc2ccc(O)cc2)NC1=O [Compound 043] ([Mpa]KG[Trp(5-F)][Trp(5-F)]PTY[αMeP]C-NH2; linker 1-10 via mXylylene(5-F)) |
| 0.1 to 100 nM | 0.11 to 100 nM | COc1ccc(C[C@@H]2NC(=O)CCSCc3cccc(c3)CSC[C@@H](C(N)=O)NC(=O)[C@]3(C)CCCN3C(=O)[C@H](Cc3ccc(OC)cc3)NC(=O)[C@H]([C@@H](C)OC)NC(=O)[C@H](CC(C)C)N(C)C(=O)[C@H](Cc3ccc(OC)cc3)NC(=O)[C@H](Cc3ccc(OC)cc3)N(C)C(=O)[C@@H](CC(C)C)NC2=O)cc1 [Compound 036] ([Mpa]Y(Me)[dL][NMeY](Me)Y(Me)[NMeL]T(Me)Y(Me)[αMeP]C-NH2; linker 1-10 via mXylylene) |
| 1000 to 12100 nM | 1000 to 12100 nM | CC(=O)N[C@H]1CCCc2cn(nn2)CCC[C@@H](C(N)=O)NC(=O)[C@]2(C)CCCN2C(=O)[C@H](Cc2ccc(O)cc2)NC(=O)[C@H](Cc2cnc[nH]2)NC(=O)[C@H](CC(=O)O)NC(=O)[C@H](Cc2c[nH]c3ccc(F)cc23)NC(=O)[C@H](Cc2c[nH]c3ccc(F)cc23)NC(=O)CNC(=O)[C@H](C)NC1=O [Compound 342] |

| Compound | IC50 [1] | IC50 (PCSK9) |
| --- | --- | --- |
| COc1ccc(C[C@@H]2NC(=O)[C@H](CCC(=O)O)NC(=O)[C@@H]3C[C@H](N)CN3C(=O)[C@H](Cc3c[nH]c4ccc(F)cc34)NC(=O)[C@H](Cc3c[nH]c4ccc(F)cc34)NC(=O)[C@@H](C)NC(=O)[C@H](C)NC(=O)CCSCc3ccc(cc3)CSCCNC(=O)[C@]3(C)CCCN3C2=O)cc1 [Compound 382] (cyclo(A[dA][Trp(5-F)][Trp(5-F)][Pro(4S-NH2)]EY(Me)[αMeP][X17])) | 0.1 to 100 nM | 0.11 to 100 nM |
